Data on 15 compounds can be found in PubChem BioAssay (NCI).

Molecules are shown by their SMILES.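 Dose response: 5 concentrations. Exposure: 48 h. Format: 96-well plates. Endpoint: linear interpolation; highest concentration if not reached. GI50 marks 50% less growth. TGI: total growth inhibition.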 Where only a bound is given, the exact number is not on record here.

Among the test systems are SF-295 CNS; SK-MEL-28 melanoma; A549 NSCLC; HCT-116 colon; UO-31 renal; SNB-75 CNS; 786-0 renal; K-562 leukemia; PC-3 prostate.
Holding throughout (assay): inhibition of tumour cell growth, NCI panel, 48 h

`N=C(c1ccccc1)N(O)C1CCCCC1`: the TGI in the assay on SF-295 CNS, in the assay on SK-MEL-28 melanoma, in the assay with A549 NSCLC, in the assay on HCT-116 colon, with UO-31 renal and with SNB-75 CNS was > 100 µM each time. Besides, in the assay on 786-0 renal, the TGI was > 100 µM.

As to `CC(=O)OC1CCn2nnc(COC(=O)NC(C)C)c21` (stereo not given), the TGI in the assay on SF-295 CNS, with SK-MEL-28 melanoma, with A549 NSCLC, in the assay on K-562 leukemia, in the assay with HCT-116 colon and in the assay with UO-31 renal was > 100 µM in each case. For the same compound, the TGI with SNB-75 CNS and with 786-0 renal was > 100 µM each time.

Regarding `COc1ccc2[nH]cc(-c3nc(-c4cn(C)c5ccncc45)cs3)c2c1`, the GI50 with SF-295 CNS was 12.3 µM; with SK-MEL-28 melanoma, 1.79 µM; with A549 NSCLC it was 1.79 µM; in the assay on HCT-116 colon, 1.77 µM; in the assay with UO-31 renal, 1.8 µM; in the assay with PC-3 prostate it was 1.98 µM. Further, the GI50 with SNB-75 CNS is 15.3 µM; in the assay with 786-0 renal it was 1.54 µM. The TGI is 25.7 µM with SF-295 CNS; 3.22 µM in the assay on SK-MEL-28 melanoma; 3.43 µM in the assay on A549 NSCLC; 3.21 µM in the assay on HCT-116 colon; 3.36 µM with UO-31 renal; 4.13 µM in the assay on PC-3 prostate. Further, the results for the TGI in the assay on SNB-75 CNS and in the assay on 786-0 renal were 29 µM and 2.9 µM, respectively.

As for `COc1cc(-c2[nH]ccc2Cl)oc1C1=C2N=C3C=C2C(C(C)C)C1CCCCCCCC3` (stereo not given), the TGI is 2.39 µM in the assay on SF-295 CNS; 2.84 µM in the assay on SK-MEL-28 melanoma; 2.88 µM in the assay on A549 NSCLC; 1.85 µM with K-562 leukemia; 0.992 µM in the assay with HCT-116 colon; 2.55 µM in the assay with UO-31 renal. Also, the figures for the TGI in the assay on PC-3 prostate, in the assay on SNB-75 CNS and in the assay with 786-0 renal were 1.37 µM, 3.18 µM and 2.34 µM, respectively.

In the case of `Cc1c(C(=O)/C=C/c2ccc(Cl)cc2)[n+](=O)c2ccccc2n1[O-]`, the TGI in the assay on SF-295 CNS turned out to be 27.1 µM; with SK-MEL-28 melanoma, 32.6 µM; in the assay with A549 NSCLC it was 33.6 µM; with K-562 leukemia, 52.9 µM; in the assay with HCT-116 colon, 18.5 µM; in the assay on UO-31 renal, 29.9 µM. Moreover, the TGI in the assay on SNB-75 CNS was 40.7 µM; in the assay with 786-0 renal it was 27.4 µM.

`Cc1ccccc1C(=O)Oc1ccc(Oc2ccccc2)cc1`: the TGI in the assay on SF-295 CNS, in the assay on A549 NSCLC, with K-562 leukemia, in the assay with HCT-116 colon, in the assay on UO-31 renal and in the assay with SNB-75 CNS was > 100 µM each time. Moreover, the TGI in the assay with 786-0 renal was > 100 µM.

`N=C(N)SCCc1cn2ccccc2n1`: the TGI in the assay on SF-295 CNS, with SK-MEL-28 melanoma, in the assay with A549 NSCLC, with K-562 leukemia, with HCT-116 colon and with UO-31 renal was > 100 µM throughout. In addition, the TGI in the assay on SNB-75 CNS and in the assay on 786-0 renal was > 100 µM in each case.

For `Cn1c(CCC#N)nc2ccc(Br)cc2c1=O`, the TGI with SF-295 CNS, in the assay on SK-MEL-28 melanoma, with A549 NSCLC, with K-562 leukemia, with UO-31 renal and in the assay on SNB-75 CNS was > 100 µM in each case. In the assay on 786-0 renal, the TGI was > 100 µM.

For `CN(C)CCn1c2ccccc2c2nc3cc4ccccc4cc3nc21`, the TGI in the assay on SF-295 CNS stood at 17 µM; with SK-MEL-28 melanoma, 21.9 µM; with A549 NSCLC, 16.9 µM; in the assay with K-562 leukemia, 10.9 µM; with HCT-116 colon, 16.9 µM; with UO-31 renal, 18.1 µM. The TGI in the assay with 786-0 renal was 16 µM.

`O=C(CCC(=O)Nc1ccc(Cl)cc1)CC(=O)c1ccc(F)cc1`: the TGI with SF-295 CNS, with SK-MEL-28 melanoma, in the assay on A549 NSCLC, in the assay with K-562 leukemia, with HCT-116 colon and in the assay on UO-31 renal was > 100 µM throughout. Further, the TGI in the assay with SNB-75 CNS and in the assay with 786-0 renal was > 100 µM each time.

With `O=c1[nH]c(Br)nc2c(Br)c[nH]c12`, the TGI in the assay on SF-295 CNS, in the assay with SK-MEL-28 melanoma, in the assay with A549 NSCLC, in the assay with K-562 leukemia, in the assay on HCT-116 colon and in the assay on UO-31 renal was > 100 µM each time. Moreover, the TGI with SNB-75 CNS and with 786-0 renal was > 100 µM throughout.

Turning to `Cc1ccc(C)c(NC(=O)c2cc(-c3ccc([N+](=O)[O-])cc3)nc(N)n2)c1`, the TGI in the assay with SF-295 CNS, with SK-MEL-28 melanoma, with A549 NSCLC, with K-562 leukemia, in the assay on HCT-116 colon and in the assay on UO-31 renal was > 100 µM each time. The TGI with SNB-75 CNS and in the assay on 786-0 renal was > 100 µM each time.

As for `Cc1ccc(NC(=O)/C(CC(=O)c2c[n+](=O)c3ccccc3n2O)=N\NC(=O)C[n+]2ccccc2)cc1`, the TGI in the assay on SF-295 CNS, in the assay on SK-MEL-28 melanoma, in the assay on A549 NSCLC, in the assay with K-562 leukemia, in the assay with HCT-116 colon and in the assay with UO-31 renal was > 100 µM each time. For the same compound, the TGI in the assay with SNB-75 CNS and in the assay with 786-0 renal was > 100 µM throughout.

For the compound `O=c1/c(=C/c2ccc(Cl)cc2Cl)sc2nc3ccccc3n12`, the TGI in the assay with SF-295 CNS, in the assay with SK-MEL-28 melanoma, in the assay with A549 NSCLC, in the assay with K-562 leukemia, in the assay on HCT-116 colon and with UO-31 renal was > 100 µM in each case. Moreover, the TGI in the assay on SNB-75 CNS and in the assay on 786-0 renal was > 100 µM each time.

As for `C=C1CC(CCCl)(c2ccccc2)OC1=O` (stereo not given), the TGI in the assay with SF-295 CNS was > 100 µM; in the assay on SK-MEL-28 melanoma, 22.2 µM; in the assay on A549 NSCLC, > 100 µM; in the assay with K-562 leukemia it was > 96.7 µM; with HCT-116 colon it was > 53.9 µM; in the assay with UO-31 renal, > 100 µM. The values for the TGI in the assay with SNB-75 CNS and in the assay on 786-0 renal were 71 µM and 31.7 µM, respectively.
